Values joined by “and” are separate entries in the source; they are usually repeats but may differ in a detail not shown here. Equal entries are not always repeated. Where two headings read alike, the source gives them in different places.
What was measured:
M^pro [1] = details: read-out: M^pro IC50 previously reported, cited from earlier work
SARS-CoV-2 PLpro [2] = molecular target: T1, SARS-CoV-2 PLpro (Severe acute respiratory syndrome coronavirus 2, UniProt P0DTD1); assay: PL^pro fluorogenic peptide cleavage assay (substrate Z-RLRGG-AMC); format: biochemical; parameters: papain-like protease (PL^pro; domain of nsp3); His; purchased BPS Biosciences BPS-100735-1
[3] = Cytotoxicity in Calu-3 cells; details: human
SARS-CoV-2 [4] = assay: Antiviral assay in Caco-2 cells; format: cell-based
SARS-CoV-2 [5] = assay: Antiviral assay in Calu-3 cells (spike staining); format: cell-based
SARS-CoV-2 PLpro [6] = molecular target: T1, SARS-CoV-2 PLpro; assay: biochemical; parameters: papain-like protease (PL^pro; domain of nsp3); purchased Anaspec (Fremont, USA) AS-72263; details: for SARS-CoV-2 PLpro inhibition % enzyme inhibition (20 µM): commercial Anaspec assay kit; for inhibition at 20 µM: read-out: SARS-CoV-2 PLpro inhibition % enzyme inhibition (20 µM)
[7] = Cytotoxicity in Caco-2 cells; details: human
SARS-CoV-2 M^pro = SARS-CoV-2 M^pro (Severe acute respiratory syndrome coronavirus 2, UniProt P0DTD1); assay: biochemical; format: biochemical; details: buffer with 5 mM DTT; for inhibition at 20 µM: 20 μM compound, for values marked a the relative standard deviation of 6% applies, read-out: SARS-CoV-2 M^pro enzyme inhibition (%) 20 μM; for inhibition at 100 µM: 100 μM compound, read-out: SARS-CoV-2 M^pro enzyme inhibition (%) 100 μM
M^pro [8] = molecular target: T2, M^pro (Severe acute respiratory syndrome coronavirus 2, UniProt P0DTD1); assay: Competitive 1H CPMG relaxation dispersion NMR with compound 4 as reporter ligand; format: binding, SARS-CoV-2; details: competition with compound 4
M^pro [9] = molecular target: T2, M^pro; format: binding; details: 2 μM protein, 50 μM ligand
in vitro [10] = details: human
in vitro [11] = details: human, Caco-2
[12] = Severe acute respiratory syndrome coronavirus 2, Calu-3 cells, MOI 0.01, 48 h postinfection, read-out: Anti-SARS-CoV-2 activity IC50

## CC(=O)O[C@H](CC=C(C)C)C1=CC(=O)c2c(O)ccc(O)c2C1=O [Compound 30, acetylshikonin]
M^pro [1]; reported inhibition later described as assay artifact (ref 34)
  IC50: 3.8 µM
SARS-CoV-2 PLpro [2]; Z-RLRGG-AMC substrate
  IC50: 24.3 µM
[3]
  CC50: > 100 µM
SARS-CoV-2 [4]; Severe acute respiratory syndrome coronavirus 2, Caco-2, read-out: Anti SARS-CoV-2 activity Caco-2 IC50 (µM)
  IC50: > 100 µM
SARS-CoV-2 [5]; [12]
  IC50: > 100 µM
SARS-CoV-2 PLpro [6]
  SARS-CoV-2 PLpro inhibition % enzyme inhibition (20 µM): significant enzyme inhibition
  inhibition at 20 µM: 100 ± 9.5%
[7]
  CC50: 65.8 µM

## O=c1cc(-c2ccccc2)oc2cc(O)c(O)c(O)c12 [Compound 4, baicalein, reference compound]
M^pro [1]
  IC50: 0.98 µM
SARS-CoV-2 M^pro
  inhibition at 20 µM: 8.6%
  inhibition at 100 µM: 90 ± 1.4%

## CC(C)=CCCC1=C[C@H](c2c(O)cc3c(c2O)C(=O)C[C@@H](c2ccc(O)cc2O)O3)[C@@H](C(=O)c2ccc(O)cc2O)[C@H](c2ccc(O)cc2O)C1 [Compound 15, sanggenon G]
M^pro [8]
  displacement of reporter ligand 4 from M^pro (CPMG-RD): displacement from the binding site
M^pro [9]
  STD signals: no STD signals were detected
SARS-CoV-2 M^pro
  inhibition at 20 µM: 92.6%
  inhibition at 100 µM: 99.6 ± 0.2%
SARS-CoV-2 M^pro; read-out: SARS-CoV-2 M^pro IC50
  IC50: 4.82 µM and 4.8 µM
SARS-CoV-2 [5]; Calu-3 cells, cytotoxicity vs anti-SARS-CoV-2 activity
  selectivity index (SI): 6.5 and > 5
SARS-CoV-2 [5]; [12]
  IC50: 7.6 µM
In vitro [10]
  CC50: 49.1 µM

## COc1ccc2c(=O)c(Oc3ccc(C(=O)NC(C)Cc4c[nH]c5ccccc45)cc3)coc2c1 (stereo not drawn) [Compound 42]
SARS-CoV-2 PLpro [2]; read-out: SARS-CoV-2 PL^pro enzyme inhibition (%) 20 μM
  inhibition at 20 µM: 4.89 ± 1.3%
SARS-CoV-2 PLpro [2]; read-out: SARS-CoV-2 PL^pro enzyme inhibition (%) 100 μM
  inhibition at 100 µM: 8.8 ± 7%
In vitro [11]
  CC50: > 100 µM
SARS-CoV-2 [4]; Severe acute respiratory syndrome coronavirus 2, Caco-2 cells, read-out: Anti SARS-CoV-2 activity Caco-2 IC50
  IC50: 7.1 µM
SARS-CoV-2 [5]; Severe acute respiratory syndrome coronavirus 2, Calu-3, 48 h, read-out: Anti-SARS-CoV-2 activity IC50 (μM)
  IC50: > 100 µM
In vitro [10]
  CC50: > 100 µM
SARS-CoV-2 PLpro [6]
  SARS-CoV-2 PLpro inhibition % enzyme inhibition (20 µM): significant enzyme inhibition
  inhibition at 20 µM: 82.3 ± 25.3%
